Source: article PMC7747594, “Protease-activated receptor-2 ligands reveal orthosteric and allosteric mechanisms of receptor inhibition” (Communications Biology, 2020)
“And” between values parts separate entries of the source, which are not always exact repeats. Equal values may be shown once. “Also recorded” adds a separate entry of the source.

Assays:
hPAR2 = molecular target: T1, hPAR2 (Homo sapiens, UniProt P55085); assay: Ca^2+ flux assay, agonist mode, 1321N1-hPAR2 cells; format: cell-based; design: Ca^2+ mobilisation tested as agonist, Fig 1c source data / Ca2+ response (Fig 2c), individual replicate values: unit not given here; details: for Ca2+ response (Fig 2c), individual replicate values: hPAR2; for Ca^2+ mobilisation tested as agonist, Fig 1c source data: log[compound], individual data points; for agonist activity (tested as agonists): Ca^2+ assay and other signalling assays
T1 sequence (P55085 26-397): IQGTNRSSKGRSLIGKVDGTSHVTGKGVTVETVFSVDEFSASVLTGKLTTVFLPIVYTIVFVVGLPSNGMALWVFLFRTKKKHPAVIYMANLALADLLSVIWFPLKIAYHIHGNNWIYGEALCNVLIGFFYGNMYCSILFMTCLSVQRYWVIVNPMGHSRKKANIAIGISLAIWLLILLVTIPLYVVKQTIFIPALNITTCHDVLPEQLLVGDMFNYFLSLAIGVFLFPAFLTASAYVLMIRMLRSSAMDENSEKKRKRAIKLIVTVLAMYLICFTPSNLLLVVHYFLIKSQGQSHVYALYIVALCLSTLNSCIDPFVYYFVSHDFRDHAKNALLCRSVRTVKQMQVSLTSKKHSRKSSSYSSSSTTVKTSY
Procedure: Cells were loaded with Fluo-8 NW calcium dye (AAT Bioquest) for 30 min at 37 °C before compounds in Hank’s balanced salt solution (HBSS, ThermoFisher Scientific) with 20 mM HEPES (ThermoFisher Scientific), 0.1% bovine serum albumin (BSA, Sigma) and 0.5% DMSO were added and simultaneously evaluated for changes in intracellular [Ca^2+] using FLIPR TETRA (Molecular Devices) to detect agonism. For each concentration, the difference between the maximum peak Ca^2+ response and baseline response is reported. […] Antagonism experiments were also carried out on 1321N1-PAR2[WT], 1321N1-PAR2[F154A], and 1321N1-PAR2[G157C] as described. Experiments with trypsin in 1321N1-hPAR2 cells were performed in the presence of 1 µM Vorapaxar (Chemtronica) to remove any interference of PAR1 activity. […] Antagonism experiments for CHO-hPAR2 and HT-29 cells were performed in 96-well plates at 30,000 cells/well. Cells were loaded with Fluo-3 AM calcium dye (Sigma-Aldrich) for 60 min at 37 °C in HBSS with 1% FBS, 0.2% pluronic acid, 20 mM HEPES and 2.5 mM probenecid prior to the addition of antagonist. The antagonist was pre-incubated for 60 min at 37 °C followed by the addition of bovine trypsin (30 nM) at EC80. Intracellular [Ca^2+] flux was measured using FLIPR TETRA (Molecular Devices) and the difference between the maximum peak Ca^2+ response and baseline response is reported.
Binding data were analysed using the One site – Fit Ki model in GraphPad Prism 8 (GraphPad Software) to determine binding affinity. Pharmacology in vitro potency data was analysed with a 4-parameter logistic fit using the equation y = Bottom + (Top − Bottom)/[…] where y is the response, x is the 10-logarithm of the drug concentration, Bottom is no response and Top is full response in GraphPad Prism 8 or Genedata Screener (Genedata). pEC50 and pIC50 data are presented as mean ± standard error of the mean (s.e.m.) derived from the number of independent experiments stated. Schild slope analysis was calculated using Graphpad Prism 8 Gaddum/Schild EC50 global fitting (shared model parameters between all data sets) competitive model. […] Schild slope quantifies the shifts in agonist response in the presence of antagonist, a Schild slope of 1 indicates the antagonist is competitive and extra-sum-of-squares F-test (p < 0.05) was used to compare the calculated Schild slope against a hypothetical Schild slope of 1. […] The relative activity was calculated using (EmaxEC50’)/(Emax’EC50) with the Hill slope help constant at 1. EC50’ and Emax’ denote the EC50 and Emax in the absence of allosteric modulator, while EC50 and Emax denote those measured in the presence of allosteric modulator. When the Hill slope = 1, the relative activity plot approaches an asymptote corresponding to the estimate of the γ value.

[1] = molecular target: T2, beta-tryptase (uniprot P20231) (Homo sapiens, UniProt P20231); assay: Tryptase enzyme activity assay; format: biochemical; details: 10 µM, n=1
T2 construct: made in house; host or cells: Pichia pastoris
T2 sequence (P20231 31-275): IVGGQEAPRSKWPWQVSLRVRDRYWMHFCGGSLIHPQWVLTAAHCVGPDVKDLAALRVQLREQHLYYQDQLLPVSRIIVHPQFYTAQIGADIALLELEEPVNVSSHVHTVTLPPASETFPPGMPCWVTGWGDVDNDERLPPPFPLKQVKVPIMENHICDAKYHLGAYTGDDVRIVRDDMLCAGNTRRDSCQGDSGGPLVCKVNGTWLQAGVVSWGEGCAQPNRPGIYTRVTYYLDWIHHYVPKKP
Procedure: Tryptase Enzyme Activity Assay. The tryptase assay was carried out using beta-tryptase (uniprot P20231) produced in Pichia pastoris and using Tos-Gly-Pro-Lys-pNA as substrate (25 mM stock in ethanol) in 100 mM Tris pH 8.0, 100 mM NaCl, 10% glycerol, 0.5 mg mL-1 BSA, 0.1% DDM. Substrate (250 µM) was pre-incubated with test compound (10 µM) in assay buffer (200 ul) in clear bottom 96 well Greiner plates at room temperature. The re action was started by the addition of tryptase to a final concentration of 4.7 nM. Co nversion was recorded in a plate reader by monitoring the increase of absorption at λ = 405 nm over time. Activity was determined by linear fit of initial rate.

mast cells = assay: Mast cell staining (toluidine blue), activated/degranulated mast cells in rat paw; format: in vivo; design: Active mast cells (%): concentration or dose not given beside the values; details: for Active mast cells (%): 2f-induced rat paw oedema, individual animals (Figure 5b); for percentage activated/degranulated mast cells in paw induced by 2f-LIGRLO-NH2: pre-treatment, 30 min
Procedure: Tissues were then embedded with Optimal Cutting Temperature compound (OCT, Sakura Finetek, USA) and stored at −80 °C before making cryo-sections for histological analysis. Frozen sections (5 µm) were made using a cryostat-microtome (Leica Biosystems, Germany). […] Slides were then dehydrated and mounted in DPX mountant (Sigma-Aldrich, USA). For immunohistochemistry, slides were briefly rinsed with PBS to remove OCT. Except for tryptase staining, antigen retrieval was performed by incubating slides in citrate buffer (0.01 M, pH 6) at 95 °C for 20 min. They were then cooled down briefly and incubated with blocking medium (PBS, 0.1% Triton X-100, 10% horse serum) for 1 h at room temperature in a humidity chamber. Samples were incubated with primary antibody medium (PBS, 0.1% Triton X-100, 4% horse serum; 1:100 primary antibody including – histamine, neutrophil elastase or ED1 antibodies) overnight at 4 °C. The next day, samples were washed with PBS and incubated with the secondary antibody medium (PBS, 0.1% Triton X-100, 4% horse serum, detection antibody 1:200) for 2 h at room temperature. For tryptase staining, slides were incubated with primary antibody medium (as above with tryptase antibody at 1:100 dilution) for 4 h, then the secondary antibody medium for 2 h. Finally, slides were dried, counterstained with DAPI (Invitrogen, Australia), and sealed with clear nail polish. Primary antibodies for tryptase (AA1, ab2378, Abcam, Australia), histamine (H7403, Sigma-Aldrich, USA), neutrophil elastase (ab21595, Abcam, Australia) and ED1 (ab31630, Abcam, Australia) were purchased from commercial sources. Secondary detection antibody was purchased from Abcam, Australia.

SMILES | Ca^2+ mobilisation tested as agonist, Fig 1c source data (hPAR2; M -4.38018) | Ca^2+ mobilisation tested as agonist, Fig 1c source data (hPAR2; M -4.88008) | Ca^2+ mobilisation tested as agonist, Fig 1c source data (hPAR2; M -5.38018) | Ca^2+ mobilisation tested as agonist, Fig 1c source data (hPAR2; M -5.88008) | Ca^2+ mobilisation tested as agonist, Fig 1c source data (hPAR2; M -6.38007) | Ca^2+ mobilisation tested as agonist, Fig 1c source data (hPAR2; M -6.88008) | Ca^2+ mobilisation tested as agonist, Fig 1c source data (hPAR2; M -7.37997) | Ca^2+ mobilisation tested as agonist, Fig 1c source data (hPAR2; M -7.88008) | Ca^2+ mobilisation tested as agonist, Fig 1c source data (hPAR2; M -8.37986) | Ca^2+ mobilisation tested as agonist, Fig 1c source data (hPAR2; M -8.87976) | agonist activity (tested as agonists) (hPAR2) | inhibition of tryptase activity [1] | Active mast cells (%) (mast cells) | percentage activated/degranulated mast cells in paw induced by 2f-LIGRLO-NH2 (mast cells) | other results
CNC(=O)[C@H]1CC[C@@H](NC(=O)[C@H](CC2CCCCC2)NC(=O)c2cn(Cc3ccccc3)nn2)c2ccccc21 [AZ2429] | – | – | – | – | – | – | – | – | – | – | – | – | – | – | higher potency than SLIGKV-NH2, Ca^2+ signalling (hPAR2; 1321N1-hPAR2): 7 fold; lower potency than GB110, Ca^2+ signalling (hPAR2; 1321N1-hPAR2): 6 fold; EC50 (hPAR2; 1321N1-hPAR2 cells, mean ± s.e.m., read-out: Ca^2+ flux pEC50 (converted)): 166 nM; Ca2+ response (Fig 2c), individual replicate values (hPAR2; [compound],M -4.30103): 115.742 and 78.7868 and 73.0001 and 99.0117; Ca2+ response (Fig 2c), individual replicate values (hPAR2; [compound],M -4.77815): 114.252 and 90.1883 and 78.2712 and 103.481; Ca2+ response (Fig 2c), individual replicate values (hPAR2; [compound],M -5.25527): 97.9804 and 100.329 and 107.319 and 71.9688; Ca2+ response (Fig 2c), individual replicate values (hPAR2; [compound],M -5.73239): 87.2091 and 90.6467 and 67.5571 and 89.0425; Ca2+ response (Fig 2c), individual replicate values (hPAR2; [compound],M -6.20952): 54.0357 and 69.6197 and 81.4796 and 66.5831; Ca2+ response (Fig 2c), individual replicate values (hPAR2; [compound],M -6.68664): 45.3269 and 46.8166 and 52.6033 and 41.6601; Ca2+ response (Fig 2c), individual replicate values (hPAR2; [compound],M -7.16376): 19.1435 and 34.6702 and 20.5758 and 32.3784; Ca2+ response (Fig 2c), individual replicate values (hPAR2; [compound],M -7.64088): 5.851 and 8.888 and 9.461 and 7.513; Ca2+ response (Fig 2c), individual replicate values (hPAR2; [compound],M -8.118): -2.628 and 1.21 and 2.414 and 2.5854; Ca2+ response (Fig 2c), individual replicate values (hPAR2; [compound],M -8.59512): -2.8 and -3.316 and -1.4252 and -1.712
C[C@@H](C1CCCCC1)n1c(-c2cc3c(cc2Br)OCO3)nc2cc(C(=O)Nc3ccc(C#N)cc3)ccc21 [AZ3451] | 2.619 and -1.693 and 12.8149 and 8.844 and 5.039 | 6.334 and 5.142 and -5.002 and 2.343 and 2.365 | 7.004 and 3.992 and 6.097 and 3.93 and 1.406 | 0.5481 and 1.501 and 3.614 and 4.082 and 2.434 | 1.705 and 0.03194 and -3.0303 and 2.1164 and 2.6397 | 1.523 and 0.2236 and 5.2939 and 1.134 and 0.3771 | 1.949 and 4.9505 and 1.716 and -0.3779 and 3.12 | 3.289 and 0.09582 and 3.3954 and 1.814 and 4.697 | 0.7917 and -0.8623 and -2.957 and 0.7559 and 2.503 | 1.34 and -1.757 and 1.643 and 4.989 and 1.8855 | no effect; also recorded: no agonist activity | no | 40% and 57.0833% and 59.9284% and 37.5635% and 18.0263% | inhibited | –
CCCc1cc(F)ccc1C(O)c1ncc[nH]1 (centres unmarked) [AZ8838] | 2.862 and -0.09582 and -3.103 and -1.512 and -1.8855 | -0.3654 and 0.4152 and -1.57 and -6.425 and -2.983 | 1.583 and 0.2874 and -4.491 and -0.4535 and -1.063 | 3.532 and 5.014 and 4.491 and 1.663 and -0.1714 | 1.035 and 1.437 and 3.98 and 0.4535 and 1.817 | 1.705 and 1.246 and -5.002 and 2.343 and 3.3939 | 2.862 and -1.309 and -0.8397 and 2.948 and 1.406 | 2.375 and -2.268 and 1.1318 and 4.308 and 1.268 | -1.218 and 0.543 and 2.665 and 1.436 and 3.188 | 4.6285 and 0.6707 and 4.491 and -8.012 and -2.845 | no effect; also recorded: no agonist activity | no | 57.5% and 42.6997% and 37.7451% and 42.5373% and 50% | inhibited | –
